Source: patent publication US20160228575A1, “NARINGENIN COMPLEXES AND METHODS OF USE THEREOF” (THE GENERAL HOSPITAL CORPORATION, priority 2008, published 2016)
≈ marks a conversion by molar mass, not a printed value. Entries after “also recorded” stand apart in the source; their conditions may differ.

What was measured:
[1] = test system: primary human hepatocytes
ApoB = ApoB secretion by primary human hepatocytes (human ApoB ELISA); format: cell-based; settings: 200 μM naringenin, 24 hours
Protocol: The Huh-7.5.1 human hepatoma cell line and a plasmid containing the JFH-1 genome were kindly provided by Dr. Chisari (Scripps Research Institute, CA) and Dr. Wakita (National Institute of Infectious Diseases, Tokyo) respectively. Huh-7.5.1 cells were cultured in DMEM medium supplemented with 10% FBS, 200 units/ml penicillin and […] streptomycin in a 5% CO2-humidified incubator at 37° C. In vitro transcribed genomic JFH-1 RNA was delivered to cells by liposome-mediated transfection as described by Zhong et al. (2005)(8). Infected Huh-7.5.1 cells were passaged every 3 days and used at passage <15. The presence of HCV in these cells and corresponding supernatants were determined by quantitative Polymerase Chain Reaction (qPCR) and immunofluorescence staining. Primary human hepatocytes were purchased from BD Biosciences (San Jose, Calif.) cultured on a collagen-coated 12 well plate in C+H culture media composed of DMEM supplemented with 10% heat-inactivated FBS, 200 U/mL penicillin/streptomycin, 7.5 μg/mL hydrocortisone, 20 ng/mL EGF, 14 ng/mL glucagons and 0.5 U/mL insulin. […]
Huh-7.5.1 and primary human hepatocytes secreted ApoB was detected in the media using ALerCHEK, Inc (Portland, Me.) total human ApoB ELISA kit. […]
To assess the potential of naringenin-based treatment, we measured ApoB secretion in primary human hepatocytes following 24 hours stimulation with naringenin. […]

[2] = test system: HCV (JFH-1) secreted by infected Huh-7.5.1 cells; assay: HCV secretion by JFH-1 infected Huh-7.5.1 cells (HCV core antigen ELISA, HCV positive strand RNA qPCR); format: cell-based, Hepatitis C virus
Protocol: The Huh-7.5.1 human hepatoma cell line and a plasmid containing the JFH-1 genome were kindly provided by Dr. Chisari (Scripps Research Institute, CA) and Dr. Wakita (National Institute of Infectious Diseases, Tokyo) respectively. Huh-7.5.1 cells were cultured in DMEM medium supplemented with 10% FBS, 200 units/ml penicillin and […] streptomycin in a 5% CO2-humidified incubator at 37° C. In vitro transcribed genomic JFH-1 RNA was delivered to cells by liposome-mediated transfection as described by Zhong et al. (2005)(8). Infected Huh-7.5.1 cells were passaged every 3 days and used at passage <15. The presence of HCV in these cells and corresponding supernatants were determined by quantitative Polymerase Chain Reaction (qPCR) and immunofluorescence staining. Primary human hepatocytes were purchased from BD Biosciences (San Jose, Calif.) cultured on a collagen-coated 12 well plate in C+H culture media composed of DMEM supplemented with 10% heat-inactivated FBS, 200 U/mL penicillin/streptomycin, 7.5 μg/mL hydrocortisone, 20 ng/mL EGF, 14 ng/mL glucagons and 0.5 U/mL insulin. The media was supplemented with 2% DMSO for long-term culture of the primary cells.
(§1) HCV-infected Huh-7.5.1 cells were plated on a 6-well plate at a density of 1×10^5 cells/cm^2 and cultured overnight in standard medium. Prior to the beginning of the experiment, the cells were washed 3 times with PBS and cultured with DMEM containing 5% lipoprotein-free FBS. Oleate, Insulin, Naringenin, and Brefeldin A were added at this time as described in the text. Following 24 hours of incubation, the plate was gently agitated to release mechanically bound particles, the media was collected, filtered to remove cellular debris, and stored at −80° C. for further analysis. The attached cells were washed 3 times with PBS, harvested, pelleted and stored at −80° C. for further analysis.
Huh-7.5.1 secreted HCV core antigen was detected in the media using Wako Chemicals (Cambridge, Mass.) ORTHO HCV antigen ELISA kit. Media was used as is, and the assay was carried out according to manufacturer's directions.
(§2) Virus samples collected in each experiment were filtered with a 0.45 μm filter and a volume of 100 μL for each sample was heated at 95° C. for 45 min. The reverse transcription reaction step was performed on a Mastercycler epgrdientS (Eppendorf) instrument using Omniscript and Sensiscript RT Kits (Qiagen). Real time PCR was performed on a Light Cycler LC-24 (Idaho Technology), using SuperScript™ III Platinum® CellsDirect Two-Step qRT-PCR Kits (Invitrogen) for quantitative PCR. For reverse transcription step, 2 μL of sample without RNA extraction were used. For real time PCR, 1 μL of the reverse transcription reactions was used. All reactions were performed according to the manufacturer's instructions using the primers detailed in Table 1.
However, this experiment was carried out on cells continuously producing the virus. Long-term treatment could potentially have a greater effect. […] This treatment is compared to the current standard-of-care, 1000 i.u. of Interferon α (IFNα). Both treatments lowered HCV RNA to a similar level, 96±5% and 93±5% respectively.

[3] = Intraperitoneal injection of naringenin to SCID mice: survival, liver enzymes, triglycerides; format: in vivo
Protocol: Male SCID mice (8 weeks old, 20-25 g) were obtained from Charles River Laboratories (Wilmington, Mass.). Animals were treated in accordance with NIH guidelines, and MGH Subcommittee on Research Animal Care. The mice were allowed free access to laboratory chow and water ad labium. Naringenin was dissolved in 0.5% Tween 20 diluted in saline and given by intraperitoneal injection. Two days following the treatment, animals were sacrificed and blood was withdrawn by cardiac puncture. AST and ALT enzyme levels were assessed as described above. Total triglycerides were measured using a kit purchased from Sigma-Aldrich Chemicals (St. Louis, Mo.) according to the manufacturer's instructions.
To assess naringenin ability to reduce circulating vLDL levels we measured total triglycerides levels in animal plasma.

[4] = test system: HCV (JFH-1) in Huh-7.5.1 cells; assay: Intracellular HCV RNA and core protein in infected Huh-7.5.1 cells; format: cell-based, Hepatitis C virus
Protocol: as §1, §2
Huh-7.5.1 cells were washed 3 times with PBS and fixed in 4% EM-grade paraformaldehyde for 10 minutes at room temperature. Slides were then washed with PBS and incubated in 100 mmol/L glycine for 15 minutes to saturate reactive groups. Samples were permeabilized for 15 minutes with 0.1% Triton X-100, blocked for 30 minutes with 1% bovine serum albumin and 5% donkey serum at room temperature, and stained with primary antibodies overnight at 4° C. After additional washes with PBS, samples were stained with fluorescently tagged secondary antibodies for 45 minutes at room temperature.

physchem = settings: 37 °C, water, thermodynamic from solid, naringenin solubility in water
LXRα = LXRα transcription in infected Huh7.5.1 cells; format: cell-based, human; settings: short term 24 hours stimulation of Huh7.5.1 cells
Protocol: as §2
PPARα and LXRα are ligand-activated transcription factors which control much of the fasted-to-fed transition and were previously shown to be important in the development of inflammation and insulin resistance. […] Following a short term 24 hours stimulation of Huh7.5.1 cells PPARα transcription increased by 86%, while LXRα was decreased by 25%. PPARα is the target of fibrates and plays a major role in the downregulation of inflammation, increasing sensitivity to insulin, and modulating dyslipidemia.

MTP = MTP mRNA level by qPCR in infected Huh7.5.1 cells; format: cell-based, human; settings: naringenin 24 hours
[5] = 24 hours, brefeldin A 2.5 μg/ml

O=C1C[C@@H](c2ccc(O)cc2)Oc2cc(O)cc(O)c21 [naringenin]
concentration up to which naringenin is non-toxic to freshly isolated human hepatocytes ([1]; 24 hours exposure): greater than 1000 μM | naringenin concentration above which human hepatocyte viability dropped significantly ([1]; 24 hours exposure): greater than 1000 μl | human hepatocyte viability ([1]; human, 24 h, 200 μM): 81%±3% | decrease in ApoB secretion (ApoB): 60%±7% | effective dose of naringenin in cell culture [2]: 0.20 mM | HCV core protein secretion (in words) [2, 5]: inhibits | HCV positive strand RNA secretion (in words) [2, 5]: inhibits | inhibition at 200 µM ([2]; Hepatitis C virus, 200 μM naringenin, short-term (24 hrs), infected Huh-7.5.1 cells): 80% | inhibition of HCV (RNA) secretion, long-term treatment ([2]; long-term daily treatment of infected Huh7.5.1 cells, naringenin 200 μM, IFNα 1000 i.u.): 96±5% | ALT levels in plasma ([3]; 48 hrs following i.p. injection, all doses): no elevation | AST levels in plasma ([3]; 48 hrs following i.p. injection, even at the highest dose (1500 mg/kg)): under 100 U/l | total triglycerides in animal plasma ([3]; following i.p. naringenin injection): decrease | animal survival ([3]; intraperitoneal injection, 60, 300, 1500 mg/kg, male SCID mice): not affected; also recorded: did not cause death | intracellular HCV core protein expression ([4]; 24 hours stimulation): remained unchanged | intracellular levels of HCV (positive strand) RNA ([4]; 24 hours stimulation): remains unchanged | HCV replication (intracellular HCV RNA), long-term treatment ([4]; long-term treatment, naringenin 200 μM, IFNα 1000 i.u.): didn't appear to effect; also recorded: remained unchanged | solubility (physchem): 40 µM (≈ 10.9 µg/mL) | decrease of LXRα transcription (LXRα): 25% | MTP mRNA level (MTP): remained unchanged
